# According to US7005258B1, “Cdc25 genes, encoded products and uses thereof” (The National Institutes of Health, priority 1991, dated 2006):
# Target: T1, GST-cdc25A phosphatase (Homo sapiens, UniProt P30304)
# T1 construct: made in house; host or cells: E. coli BL21(DE3)
# T1 sequence (P30304 1-524): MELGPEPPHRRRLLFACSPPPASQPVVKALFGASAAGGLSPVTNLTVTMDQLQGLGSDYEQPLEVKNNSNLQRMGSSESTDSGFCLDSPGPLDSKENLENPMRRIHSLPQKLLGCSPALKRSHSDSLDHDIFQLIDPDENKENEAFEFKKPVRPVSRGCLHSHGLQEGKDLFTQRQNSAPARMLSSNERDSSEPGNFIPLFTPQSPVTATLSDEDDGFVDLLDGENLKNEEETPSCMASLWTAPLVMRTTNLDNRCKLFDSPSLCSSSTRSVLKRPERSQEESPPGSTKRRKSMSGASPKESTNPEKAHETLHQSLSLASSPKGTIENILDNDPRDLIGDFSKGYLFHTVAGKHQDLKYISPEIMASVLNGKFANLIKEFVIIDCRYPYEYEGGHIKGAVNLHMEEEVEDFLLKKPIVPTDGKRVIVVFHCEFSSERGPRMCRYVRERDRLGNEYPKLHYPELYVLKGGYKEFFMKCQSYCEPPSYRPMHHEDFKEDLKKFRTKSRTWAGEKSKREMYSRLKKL
# Assay: GST-cdc25A phosphatase activity towards p-nitrophenylphosphate (microtitration plate assay)
# Type: biochemical
# Procedure: One ml assay: 100 μl of GST-cdc25A protein (diluted to an activity of ∂ OD 410 nm=0.3/10 min) were mixed with 100 μl […] (in Tris buffer A) and 700 μl of Tris buffer A. The assay was initiated by addition of 100 μl 500 mM p-NPP (in Tris buffer A). After 10 min incubation at 37° C., the assay was terminated by addition of 40 μl 5 N NaOH and transfer of the tubes to 4° C. Absorbance at 410 nm was then measured and blank values (no GST-cdc25A protein but 10 min incubation) were subtracted.
# This assay was then scaled down to 200 μl and conducted semi-automatically in 96-wells microtitration plates, as described in detail below. Each well was filled with 20 μl GST-cdc25A phosphatase, 140 μl Tris buffer A, 20 μl 100 mM DTT (in Tris buffer A); after 15 min equilibration at 37° C., reaction was initiated by addition of 20 μl 500 mM p-NPP (in Tris buffer A). After 60 min incubation absorbance at 405 nm was monitored in a microplate reader; blank values (no GST-cdc25A added) were subtracted.
# Microtitration plate assay: 20 μl of GST-cdc25A protein (diluted to an activity of a ∂ OD 405 nm=0.2–0.3/60 min) were mixed with 20 μl 100 mM DTT (in Tris buffer A) and 140 μl of Tris buffer A, in 96-wells microtitration plates (Corning). The plates were preincubated at 37° C. for 15 min in a Denley Wellwarm 1 microplate incubator. The assays were initiated by addition of 20 μl of 500 mM p-NPP (in Tris buffer A). After 60 min incubation at 37° C. absorbance at 405 nm was measured in a bioRad microplate reader. Blank values (no CST-cdc25A protein added) were automatically subtracted.
# In a series of experiments various antimitotic compounds currently used in cancer therapy were tested as potential inhibitors of the phosphatase (the Table). Most of them are reported to act as DNA damaging agents, as DNA intercalators, as topoisomerase 2 inhibitors or as compounds interfering with spindle microtubles. […] As a positive control vanadate, a reported inhibitor of tyrosine phosphatases was also tested (Gordon, J. A., 1Methods in Enzymology pp. 447–482 (1991)).
compound,measurement,setting,value
"[Na+].[Na+].[Na+].[O]=[V]([O-])([O-])[O-] [vanadate, sodium orthovanadate]",inhibition of GST-cdc25A phosphatase,at concentrations above 500 μM,totally inhibits
same,inhibition of cdc25 / GST-cdc25A phosphatase (summary statement),concentration not given,totally inhibit
same,IC50,"p-NPP substrate, FIG. 14, read-out: I50, inhibition of GST-cdc25A phosphatase",20 µM
